Patent US10829501B2 (BRISTOL-MYERS SQUIBB COMPANY, priority 2016, dated 2020)
Counter-ions that a name gives are not always drawn.

Biological target: ROCK2 (Homo sapiens, UniProt O75116)
Experiment: ROCK2 kinase inhibition assay (LABCHIP 3000 Reader, FITC peptide substrate);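 note: rho kinase reaction read by separating phosphorylated from unphosphorylated peptide on chip, with inhibition of kinase activity computed per concentration across a dose-response series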
Conditions: not given

Sequence of ROCK2 (O75116 whole entry, species assumed): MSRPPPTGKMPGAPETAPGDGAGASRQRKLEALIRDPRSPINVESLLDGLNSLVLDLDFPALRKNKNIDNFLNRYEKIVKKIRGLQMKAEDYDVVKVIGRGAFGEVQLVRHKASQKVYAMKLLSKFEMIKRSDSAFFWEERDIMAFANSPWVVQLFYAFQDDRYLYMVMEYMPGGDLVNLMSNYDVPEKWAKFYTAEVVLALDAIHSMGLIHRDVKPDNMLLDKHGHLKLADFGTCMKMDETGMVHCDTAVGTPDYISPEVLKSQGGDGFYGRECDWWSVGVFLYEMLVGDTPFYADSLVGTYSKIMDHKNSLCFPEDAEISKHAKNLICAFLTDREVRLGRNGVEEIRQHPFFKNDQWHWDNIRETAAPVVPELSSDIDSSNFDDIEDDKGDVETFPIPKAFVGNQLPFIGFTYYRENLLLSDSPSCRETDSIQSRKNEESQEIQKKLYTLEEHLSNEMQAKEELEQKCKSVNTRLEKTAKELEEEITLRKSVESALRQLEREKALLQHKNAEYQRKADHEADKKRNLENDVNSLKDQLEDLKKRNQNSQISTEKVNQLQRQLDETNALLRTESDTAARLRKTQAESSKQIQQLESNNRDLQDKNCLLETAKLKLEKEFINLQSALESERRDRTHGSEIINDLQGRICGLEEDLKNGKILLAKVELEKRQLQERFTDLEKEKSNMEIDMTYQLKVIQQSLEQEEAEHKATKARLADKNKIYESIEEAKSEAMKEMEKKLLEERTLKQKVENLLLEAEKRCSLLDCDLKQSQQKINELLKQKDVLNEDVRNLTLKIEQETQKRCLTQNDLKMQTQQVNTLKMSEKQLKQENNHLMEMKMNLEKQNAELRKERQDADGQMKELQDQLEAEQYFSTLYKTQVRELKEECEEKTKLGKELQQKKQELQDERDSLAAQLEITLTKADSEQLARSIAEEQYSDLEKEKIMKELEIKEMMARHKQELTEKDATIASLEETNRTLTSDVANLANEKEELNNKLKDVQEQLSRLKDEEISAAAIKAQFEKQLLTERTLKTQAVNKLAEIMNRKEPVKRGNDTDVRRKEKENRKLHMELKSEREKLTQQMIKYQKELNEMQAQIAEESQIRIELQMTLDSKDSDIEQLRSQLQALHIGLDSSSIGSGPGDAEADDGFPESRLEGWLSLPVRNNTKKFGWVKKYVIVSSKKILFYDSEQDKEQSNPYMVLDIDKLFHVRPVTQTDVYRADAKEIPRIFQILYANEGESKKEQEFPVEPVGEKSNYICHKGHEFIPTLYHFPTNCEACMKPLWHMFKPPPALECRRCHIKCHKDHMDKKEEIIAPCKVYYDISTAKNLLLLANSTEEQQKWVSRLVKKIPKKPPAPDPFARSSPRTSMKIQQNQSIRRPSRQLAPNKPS

Molecule	IC50
CC(C)(O)COc1ccc2c(C(=O)N[C@H]3CC4(C3)C[C@H](Oc3ncccc3C(N)=O)C4)cnn2c1N1CCCCC1=O (atropisomer, axis not shown; (aR)) [Example 69, N-((aR)-6-((3-carbamoylpyridin-2-yl)oxy)spiro[3.3]heptan-2-yl)-6-(2-hydroxy-2-methylpropoxy)-7-(2-oxopiperidin-1-yl)pyrazolo[1,5-a]pyridine-3-carboxamide, trifluoroacetate]	50 to 250 nM
Cc1c(C(=O)NC2CC3(C2)CC(Oc2ccccc2C(N)=O)C3)cnn1-c1ccccc1 (stereo not shown) [Example 1, N-(6-(2-carbamoylphenoxy)spiro[3.3]heptan-2-yl)-5-methyl-1-phenyl-1H-pyrazole-4-carboxamide]	50 to 250 nM
Cn1nc(C(=O)NC2CC3(C2)CC(Oc2ccccc2C(N)=O)C3)c2ccccc21 (stereo not shown) [Example 2, N-(6-(2-carbamoylphenoxy)spiro[3.3]heptan-2-yl)-1-methyl-1H-indazole-3-carboxamide]	50 to 250 nM
COc1cc(C(=O)NC2CC3(C2)CC(Oc2ccccc2C(N)=O)C3)ccc1-c1cn[nH]c1 (stereo not shown) [Example 5, N-(6-(2-carbamoylphenoxy)spiro[3.3]heptan-2-yl)-3-methoxy-4-(1H-pyrazol-4-yl)benzamide]	50 to 250 nM
CC(C)(O)COc1ccc2c(C(=O)NC3CC4(C3)CC(Oc3nccnc3C(N)=O)C4)cnn2c1 (stereo not shown) [Example 7, N-(6-((3-carbamoylpyrazin-2-yl)oxy)spiro[3.3]heptan-2-yl)-6-(2-hydroxy-2-methylpropoxy)pyrazolo[1,5-a]pyridine-3-carboxamide]	250 to 2500 nM
CC(C)(O)COc1ccc2c(C(=O)NC3CC4(C3)CC(Oc3ncncc3C(N)=O)C4)cnn2c1 (stereo not shown) [Example 8, N-(6-((5-carbamoylpyrimidin-4-yl)oxy)spiro[3.3]heptan-2-yl)-6-(2-hydroxy-2-methylpropoxy)pyrazolo[1,5-a]pyridine-3-carboxamide]	50 to 250 nM
NC(=O)c1cccnc1OC1CC2(CC(NC(=O)c3cnn4cc(OC5CCOCC5)ccc34)C2)C1 (stereo not shown) [Example 11, N-(6-((3-carbamoylpyridin-2-yl)oxy)spiro[3.3]heptan-2-yl)-6-((tetrahydro-2H-pyran-4-yl)oxy)pyrazolo[1,5-a]pyridine-3-carboxamide]	5 to 50 nM
NC(=O)c1cccnc1OC1CC2(CC(NC(=O)N3CCc4ccccc43)C2)C1 (stereo not shown) [Example 12, N-(6-((3-carbamoylpyridin-2-yl)oxy)spiro[3.3]heptan-2-yl)indoline-1-carboxamide]	50 to 250 nM
N#Cc1ccc2c(c1)CN(C(=O)NC1CC3(C1)CC(Oc1ncccc1C(N)=O)C3)C2 (stereo not shown) [Example 13, N-(6-((3-carbamoylpyridin-2-yl)oxy)spiro[3.3]heptan-2-yl)-5-cyanoisoindoline-2-carboxamide]	50 to 250 nM
NC(=O)c1ccccc1OC1CC2(CC(NC(=O)OCc3ccccc3)C2)C1 [Example 14, benzyl ((aR)-6-(2-carbamoylphenoxy)spiro[3.3]heptan-2-yl)carbamate]	250 to 2500 nM
COc1ccc2c(c1)CCN2C(=O)NC1CC2(C1)CC(Oc1ncccc1C(N)=O)C2 [Example 17, N-((aR)-6-((3-carbamoylpyridin-2-yl)oxy)spiro[3.3]heptan-2-yl)-5-methoxyindoline-1-carboxamide]	50 to 250 nM

Other lines, results leading:

IC50	Molecule
5 to 50 nM	[H][C@]1(Oc2cc(-c3cnn(C)c3)ccc2C(N)=O)C[C@@]2(C[C@H](NC(=O)c3cnn4cc(OCC(C)(C)O)ccc34)C2)C1 (single isomer, unassigned) [Example 276]
5 to 50 nM	CC(C)(O)COc1ccc2c(C(=O)NC3CC4(C3)CC(Oc3ccccc3C(N)=O)C4)cnn2c1 (stereo not shown) [Example 3, N-(6-(2-carbamoylphenoxy)spiro[3.3]heptan-2-yl)-6-(2-hydroxy-2-methylpropoxy)pyrazolo[1,5-a]pyridine-3-carboxamide]
5 to 50 nM	NC(=O)c1ccccc1OC1CC2(CC(NC(=O)c3cnn4cc(OC5CCOC5)ccc34)C2)C1 (stereo not shown) [Example 4, N-(6-(2-carbamoylphenoxy)spiro[3.3]heptan-2-yl)-6-((tetrahydrofuran-3-yl)oxy)pyrazolo[1,5-a]pyridine-3-carboxamide]
< 5 nM	CC(C)(O)COc1ccc2c(C(=O)NC3CC4(C3)CC(Oc3ncccc3C(N)=O)C4)cnn2c1 (stereo not shown) [Example 6, N-(6-((3-carbamoylpyridin-2-yl)oxy)spiro[3.3]heptan-2-yl)-6-(2-hydroxy-2-methylpropoxy)pyrazolo[1,5-a]pyridine-3-carboxamide]
5 to 50 nM	NC(=O)c1cccnc1OC1CC2(CC(NC(=O)c3cnn4cc(OC(CF)CF)ccc34)C2)C1 (stereo not shown) [Example 9, N-(6-((3-carbamoylpyridin-2-yl)oxy)spiro[3.3]heptan-2-yl)-6-((1,3-difluoropropan-2-yl)oxy)pyrazolo[1,5-a]pyridine-3-carboxamide]
5 to 50 nM	NC(=O)c1cccnc1OC1CC2(CC(NC(=O)c3cnn4cc(OCCC(F)(F)F)ccc34)C2)C1 (stereo not shown) [Example 10, N-(6-((3-carbamoylpyridin-2-yl)oxy)spiro[3.3]heptan-2-yl)-6-(3,3,3-trifluoropropoxy)pyrazolo[1,5-a]pyridine-3-carboxamide]
< 5 nM	[H][C@]1(Oc2ccccc2C(N)=O)C[C@@]2(C[C@H](NC(=O)c3cnn4c(C5CC5)c(OCC(C)(C)O)ccc34)C2)C1 (stereo partly drawn) [Example 15, N-((aR)-6-(2-carbamoylphenoxy)spiro[3.3]heptan-2-yl)-7-cyclopropyl-6-(2-hydroxy-2-methylpropoxy)pyrazolo[1,5-a]pyridine-3-carboxamide]
< 5 nM	[H][C@]1(Oc2ccccc2C(N)=O)C[C@@]2(C[C@H](NC(=O)c3cnn4cc(OCC(C)(C)O)ccc34)C2)C1 (stereo partly drawn) [Example 16, N-((aR)-6-(2-carbamoylphenoxy)spiro[3.3]heptan-2-yl)-6-(2-hydroxy-2-methylpropoxy)pyrazolo[1,5-a]pyridine-3-carboxamide]
< 5 nM	NC(=O)c1ccccc1O[C@H]1CC2(C[C@H](NC(=O)c3cnc4cc(OCCC(F)(F)F)ccn34)C2)C1 (stereo partly drawn) [Example 18, N-[(aR)-6-(2-carbamoylphenoxy)spiro[3.3]heptan-2-yl]-7-(3,3,3-trifluoropropoxy)imidazo [1,2-a]pyridine-3-carboxamdie]

Same assay, conditions: read-out: ROCK2 Activity (ROCK2 IC50); 5 μM ATP, 1.5 μM peptide substrate, pH 7.5

Molecule	IC50
2-(((aR)-6-(1- (pyridin-2-yl)-5- (trifluoromethyl)- 1H-pyrazole-4- carboxamido) spiro[3.3]heptan-2- yl)oxy) nicotinamide [Example 129]	250 to 2500 nM
2-(((aR)-6-(3-(2- methylthiazol-4- yl)benzamido)spiro [3.3]heptan-2- yl)oxy)nicotinamide, trifluoroacetate [Example 133]	5 to 50 nM
2-(((aR)-6-(3-cyano- 5-(1-methyl- 1H-pyrazol-4- yl)benzamido) spiro[3.3]heptan-2- yl)oxy)nicotinamide [Example 195]	< 5 nM
2-((aR)-6- (1-methyl-3- (trifluoromethyl)- 1H-pyrazole- 5-carboxamido) spiro[3.3]heptan- 2-yl)oxy) nicotinamide, trifluoroacetate [Example 86]	50 to 250 nM
2-((aR)-6- (1-phenyl-1H- pyrazole-4- carboxamido) spiro[3.3]- heptan-2-yl)oxy) nicotinamide, trifluoroacetate [Example 73]	5 to 50 nM
